The subject of test [1] is SKOV3 human ovarian cancer cells. Put plainly: Tumour killing assay (TKA), SKOV3 spheroid / PBMC co-culture. It counts as cell-based. Particulars: STM3480 0.05 micromolar, FIG. 1 and 2. The procedure: This experiment evaluates the effects of human donor Peripheral Blood Mononuclear Cells (PBMCs) to attack and kill fluorescently-labelled tumour cells in a co-culture assay. Briefly, test agents are incubated at different concentrations with SKOV3 human ovarian cancer cells in the presence or absence of human donor PBMCs and tumour growth is monitored continuously by real time imaging of the NucLight Red-labelled SKOV3 cells for several days.
NucLight Red (Incucyte, Essen Biosciences)-transduced SK-OV-3 (SK-OV-3-NLR) cells were transferred into Ultra-low attachment 96 well plates with spontaneous spheroid formation occurring over 48 hours. Peripheral blood mononuclear cells (PBMC) were isolated from healthy single donor buffy coats by density separation. Prior to co-culture of SK-OV-3-NLR spheroids with PBMC, SK-OV-3-NLR spheroids were treated with 10 ng/ml of interferon gamma (IFNγ). All treatments, including STM3480 and Pembrolizumab, were added at the point of co-culture in a final total volume of 200 μl/per well. Assay plates were transferred into an IncuCyte S3 and images were collected every 2 hours for 7 days. Following experimental completion, an analysis definition was applied to quantify the Total NLR Integrated Intensity present on a per well basis. Changes in spheroid size were quantified by plotting Total NLR Integrated Intensity against time.

For the next test, the system named is EMT6 mouse breast cancer. Put plainly: Subcutaneous EMT6 breast cancer syngeneic model, anti-tumour efficacy. It counts as in vivo. Conditions: 10 per group. The source says: The in vivo effect of METTL3 inhibition in combination with anti-PD1 immune checkpoint inhibitor was investigated using syngeneic mouse tumour models in immune-competent hosts. Mouse tumour models can be grown in appropriate host strains and are widely used to investigate the effects of therapeutic agents on the immune system and cancer growth. There are a limited range of mouse syngeneic tumour models available, far fewer than human cell lines, and they are widely used in the art to support potential clinical utility of immune stimulatory approaches across multiple indications. We exemplify the potential role of STM3480 and combinations with immune checkpoint inhibitors such as anti-PD-1 antibodies in multiple tumour models including A20 (murine B cell lymphoma), EMT-6 (murine breast cancer) and CT-26 (murine colorectal cancer).
The objective of this study is to assess the anti-tumour efficacy of STM3480 in combination with anti-PD1 in subcutaneous EMT6 mouse breast cancer model in female BALB/c mice.
EMT6 (#ATCC CRL-2755) mouse breast cancer cells were cultured in (Waymouth's MB 752/1 Medium with 2 mM L-glutamine, 85%; foetal bovine serum (non-heat inactivated), 15%) media. […]
Tumours were measured three times a week and tumour volumes estimated using the formula 0.5 (L×W^2) by measuring the tumour in two dimensions using electronic callipers for the duration of the study. […]

Another test relates to MOLM13 AML cell line. The test can be described thus: AML cell viability, CellTiter-Glo combination matrix, MOLM13. Conditions: MOLM13 AML cell line. The class given is cell-based. The procedure: The sensitivity of AML cell lines to combinations of METTL3 inhibitor and standards of care was determined as described. Dose response curves of venetoclax were determined either alone or in the presence of different concentrations of METTL3 inhibitor that are known to be active in cells.
Synergistic interactions occur when the IC50 value decreases in the presence of METTL3 inhibitor. […] Antagonistic interactions occur when the IC50 value increases in the presence of METTL3 inhibitor.
(§1) 24 h before cell treatment, homogenize, stain with Trypan blue and count viable cells using CellOMeter Auto T4. Dilute cells in media at 400 000 cells/ml to ensure an exponential growth the day after.
(§2) On treatment day, homogenize, stain with Trypan blue and count viable cells using CellOMeter Auto T4. Dilute to the proper cell seeding density according to Table 6 in cell media.
(§3) • Dispense drug (see Table 7) and METTL3 inhibitor in semi-log dose-response matrix and DMSO in 384-well plates using D300e Nanodispenser (Tecan). • 6× compound solution preparation: add 40 μL of cell medium in compound-containing plates and homogenize using the ViaFlo device (Integra) • Dispense 30 μl of cell suspension per well in three replicate 384-well white Ultra-Low-Attachment plates (Sbio) using ViaFlow device (Integra) • Transfer 6 μL of the 6× compound solution in each 30 μL cell suspension-containing plate. • Incubate at 37° C. 5% CO2 for 3 to 5 days.
(§4) • Add 35 μL CellTiter-Glo (Promega) in wells (vol/vol) using ViaFlo device (Integra). • Incubate at RT 10 min in the dark, with agitation the first minute, and read luminescence on the Ensight device (Perkin Elmer).
Raw data were converted to % viability by normalization to DMSO controls. IC50 determination was performed using GraphPad Prism and fitting curves to the standard nonlinear regression four parameter equation (Y=Bottom+(Top-Bottom)/(1+(IC50/X)^HillSlope)) least squares method, and synergy was assessed by comparison of IC50 values of the standard of care in the presence or absence of different concentrations of METTL3 inhibitor (see FIGS. 12 to 19).
On the technique in general: Cellular ATP, detected with luciferase, serves as a proxy for viable cell number.

Test [2] deals with FLT3-mutant MOLM-14 AML cell line. Put plainly: AML cell viability, CellTiter-Glo combination matrix, MOLM-14. It counts as cell-based. The procedure:
as §1, §2, §3, §4
Raw data were converted to % viability by normalization to DMSO controls.

The structures appear in SMILES notation.

With `O=C(NCc1ccc2cc(CNCC3CCC3)[nH]c2c1)c1cc(=O)n2ccccc2n1` [STM3480, N-[(2-{[(cyclobutylmethyl)amino]methyl}-1H-indol-6-yl)methyl]-4-oxo-4H-pyrido[1,2-a]pyrimidine-2-carboxamide], the “tumour viability (normalized NucLight Red [NLR] fluorescence) against time” value in test [1] is recorded as “greater anti-tumour effect compared to vehicle”. The “Mean tumour volume d21” value in the test with EMT6 mouse breast cancer (EMT6, female BALB/c mice, STM3480 50 mg/kg p.o., anti PD1 10 mg/kg i.p. BIW, up to 3 weeks) is 141 mm3. Also, in the test on EMT6 mouse breast cancer (EMT6), the “No. mice with complete regressions” value stood at 1. Moreover, the interaction with venetoclax entry with MOLM13 AML cell line was “synergistic”. In test [2] (FLT3-mutant MOLM-14 AML cell line), the interaction with quizartinib result was “additive”. The “cell viability with increasing concentrations of METTL3 inhibitor” value in test [2] (MOLM-14, combination with quizartinib) is “decreasing viability”.

These data come from patent US20240277715A1, “COMBINATION THERAPIES COMPRISING A METTL3 INHIBITOR AND A FURTHER ANTICANCER AGENT” (Storm Therapeutics Limited, priority 2021, published 2024).
